Results reported in patent US6033867A, “Fructosyl amino acid oxidase, process for producing the same, and method of assaying amadori compounds using the enzyme” (Kyoto Daiichi Kagaku Co., Ltd., priority 1995, dated 2000).

Key:
FAOD-A [1] = experiment: Effect of metal ion on the activity of FAOD-A; format: biochemical, A. terreus IFO6365; settings: for effect of metal ion on FAOD-A, in words: 1 mM
Description: (§1) To an enzyme solution was added a solution containing a metal ion to be tested at a final concentration of 1 mM in 0.1 M Tris-HCl buffer (pH 8.0). After 5-minute-incubation at 30° C., the enzyme activity was assayed.

FAOD-L [2] = target: T1, FAOD-L (Aspergillus terreus, UniProt Q92204); experiment: Effect of metal ion on the activity of FAOD-L; format: biochemical, A. terreus GP1; settings: for effect of metal ion on FAOD-L, in words: 1 mM; for relative activity (%): material 1 mM, 0.1 M Tris-HCl pH 8.0, 5 min at 30° C., None = 100
T1 construct: 94 kDa by gel filtration, 48 kDa subunit, so homodimer
Description: as §1

[3] = tested on: FAOD-A originated from A. terreus IFO6365; experiment: Substrate specificity of FAOD-A; format: biochemical
Description: (§2) A 100 mM FZL solution was prepared by dissolving previously-obtained FZL in distilled water. To 100 μl of 45 mM 4-aminoantipyrine, 100 μl of 60 U/ml peroxidase, 100 μl of 60 mM phenol, 1 ml of 0.1 M Tris-HCl buffer (pH 8.0) and 50 μl of enzyme solution was added distilled water to total volume of 3.0 ml. The mixture was incubated at 30° C. for 2 minutes, 50 μl of 100 mM FZL solution was added thereto, and the time course of absorbance at 505 nm was measured. The amount (μmole) of hydrogen peroxide generated per minute was calculated on the basis of molar absorptivity (5.16×10^3 M^-1 cm^-1) of quinone pigment produced, and the resultant numerical value was taken as a unit(U) of enzyme activity.

[4] = target: T2, FAOD-L originated from A. terreus GP1 (Aspergillus terreus, UniProt Q92204); experiment: Substrate specificity of FAOD-L; format: biochemical
T2 construct: 94 kDa by gel filtration, 48 kDa subunit, so homodimer
T2 sequence (Q92204 1-437): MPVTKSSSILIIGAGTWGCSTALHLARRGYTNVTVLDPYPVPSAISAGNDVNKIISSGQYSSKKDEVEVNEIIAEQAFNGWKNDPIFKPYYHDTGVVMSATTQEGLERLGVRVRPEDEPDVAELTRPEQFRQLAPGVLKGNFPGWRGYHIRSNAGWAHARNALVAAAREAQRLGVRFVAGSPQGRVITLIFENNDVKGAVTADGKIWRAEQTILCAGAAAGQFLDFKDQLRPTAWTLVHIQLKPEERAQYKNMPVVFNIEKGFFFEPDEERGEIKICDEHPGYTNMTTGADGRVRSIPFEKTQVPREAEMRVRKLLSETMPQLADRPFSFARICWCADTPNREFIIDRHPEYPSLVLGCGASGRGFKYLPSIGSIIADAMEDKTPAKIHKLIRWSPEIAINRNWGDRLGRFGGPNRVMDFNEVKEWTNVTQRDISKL
Description: as §2

FAOD-A [5] = experiment: Effect of various inhibitors on FAOD-A activity; format: biochemical, A. terreus IFO6365; settings: for inhibition of FAOD-A activity, in words: PCMB 0.1 mM, others 1 mM
Description: as §1
(§3) The inhibitory effect of various substances was tested in a manner substantially analogous to that described in (1) above. In the present test, the final concentration of parachloro mercuric benzoate (PCMB) is 0.1 mM while that of others 1 mM.

FAOD-L [6] = target: T1, FAOD-L; experiment: Effect of various inhibitors on FAOD-L activity; format: biochemical, A. terreus GP1; settings: for inhibition of FAOD-L activity, in words: PCMB 0.1 mM, others 1 mM
Description: as §1, §3

[7] = material 1 mM, 0.1 M Tris-HCl pH 8.0, 5 min at 30° C., None = 100
[8] = substrate concentration 1.67 mM

## [Zn+2] [zinc]
FAOD-A [1]
  effect of metal ion on FAOD-A, in words: inhibited
FAOD-L [2]
  effect of metal ion on FAOD-L, in words: inhibitory

## [Cl][Mn][Cl] [MnCl2]
FAOD-A [1]
  effect of metal ion on FAOD-A, in words: inhibitory
FAOD-A [1]; [7]
  relative activity (%): 59%
FAOD-L [2]
  relative activity (%): 101%

## [Cl-].[Cs+] [CsCl]
FAOD-A [1]; [7]
  relative activity (%): 108%

## [Cl-].[Li+] [LiCl]
FAOD-A [1]; [7]
  relative activity (%): 103%

## [Ag+] [silver]
FAOD-L [2]
  effect of metal ion on FAOD-L, in words: inhibited completely

## N^ε -Fructosylpoly-L-lysine
[3]; substrate concentration 0.02%
  Specific activity (%): 2.0%
[4]; substrate concentration 0.02%
  Specific activity (%): 0.30%

## [Co] [cobalt]
FAOD-A [1]
  effect of metal ion on FAOD-A, in words: inhibitory

## Fructosyl valine
[3]; [8]
  Specific activity (%): 20.5%
[4]; [8]
  Specific activity (%): 32.1%

## [Ca+2].[Cl-].[Cl-] [CaCl2]
FAOD-A [1]; [7]
  relative activity (%): 104%
FAOD-L [2]
  relative activity (%): 96%

## O=C(O)c1cc(SSc2ccc([N+](=O)[O-])c(C(=O)O)c2)ccc1[N+](=O)[O-] [DTNB, 5,5Dithiobis(2-nitrobenzoic acid)]
FAOD-A [5]
  inhibition of FAOD-A activity, in words: inhibit the FAOD-A activity completely
FAOD-L [6]
  inhibition of FAOD-L activity, in words: inhibit the FAOD-L activity strongly

## NNc1ccccc1 [phenylhydrazine]
FAOD-A [5]
  inhibition of FAOD-A activity, in words: inhibit the FAOD-A activity completely

## NO [hydroxylamine]
FAOD-A [5]; material 1 mM, None = 100
  relative activity (%): 10%
FAOD-L [6]; material 1 mM, None = 100
  relative activity (%): 2%

## NNC(N)=O [semicarbazide]
FAOD-A [5]; material 1 mM, None = 100
  relative activity (%): 64%

## O=C(O)CI [Acetic iodide]
FAOD-A [5]
  relative activity (%): 66%

## c1ccc(-c2ccccn2)nc1 [α,α-Dipyridyl]
FAOD-A [5]; material 1 mM, None = 100
  relative activity (%): 67%

## NN [hydrazine]
FAOD-A [5]
  inhibition of FAOD-A activity, in words: inhibit the FAOD-A activity completely
FAOD-L [6]
  inhibition of FAOD-L activity, in words: inhibit the FAOD-L activity strongly

## mercury
FAOD-A [1]
  effect of metal ion on FAOD-A, in words: inhibited
FAOD-L [2]
  effect of metal ion on FAOD-L, in words: inhibited completely

## c1cnc2c(c1)ccc1cccnc12 [o-Phenanthroline]
FAOD-A [5]; material 1 mM, None = 100
  relative activity (%): 62%

## [Cu+2] [copper]
FAOD-L [2]
  effect of metal ion on FAOD-L, in words: inhibitory

## O=C(N[C@@H](CCCCNCC(=O)[C@@H](O)[C@H](O)[C@H](O)CO)C(=O)O)OCc1ccccc1 [N^ε -fructosyl N^α -Z-lysine]
[3]; [8]
  Specific activity (%): 100%
[4]; [8]
  Specific activity (%): 100%

## O=S(=O)([O-])[O-].[Fe+2] [FeSO4]
FAOD-L [2]
  relative activity (%): 95%

## O=C(O)c1cc[c]([Hg][Cl])cc1 [p-CMB, parachloro mercuric benzoate]
FAOD-A [5]
  inhibition of FAOD-A activity, in words: inhibit the FAOD-A activity completely
FAOD-L [6]
  inhibition of FAOD-L activity, in words: inhibit the FAOD-L activity strongly

## [Cl-].[Rb+] [RbCl]
FAOD-A [1]; [7]
  relative activity (%): 107%

## [Cl-].[Na+] [NaCl]
FAOD-A [1]; pH 8
  relative activity (%): 104%

## [Cl-].[Cl-].[Mg+2] [MgCl2]
FAOD-A [1]; [7]
  relative activity (%): 108%
FAOD-L [2]
  relative activity (%): 101%
